Reference: ChEMBL document CHEMBL1201862, “PubChem BioAssay data set” (2004)
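Method: 48-hour compound exposure of cells in 96-well plates, five concentrations, linear interpolation of endpoints. GI50 marks 50% less growth.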 Active and inactive are the calls of the source. Cut-off read from the data, not from the text of the source: active = GI50 up to about 1.1 µM and inactive = higher.

How the values were obtained:
Assay in all cases: NCI tumour cell line growth inhibition, 48 h
M19-MEL = system: M19-MEL
HOP-18 = system: HOP-18
SNB-78 = system: SNB-78
LXFL 529 = system: LXFL 529
KM-20L2 = system: KM-20L2
DMS-273 = system: DMS-273
XF498 = system: XF498
DLD-1 = system: DLD-1
RXF 631 = system: RXF 631

Compound | GI50 (M19-MEL) | GI50 (HOP-18) | GI50 (SNB-78) | GI50 (LXFL 529) | GI50 (KM-20L2) | GI50 (DMS-273) | GI50 (XF498) | GI50 (DLD-1) | GI50 (RXF 631)
CCC1c2cc3n(c(=O)c2COC1O)Cc1c-3nc2ccccc2c1Cl (stereo not drawn) | 69.3 µM (inactive) | > 75.7 µM (inactive) | > 100 µM (inactive) | > 80.7 µM (inactive) | > 69.7 µM (inactive) | 4.4 µM (inactive) | > 100 µM (inactive) | 99.1 µM (inactive) | –
COc1cc(NS(=O)(=O)c2ccc(C)cc2)c2nccnc2c1 | 19.5 µM (inactive) | 93.5 µM (inactive) | – | 20.8 µM (inactive) | 32.1 µM (inactive) | 23.6 µM (inactive) | 29 µM (inactive) | 30.3 µM (inactive) | –
CNCCCNc1c2ccccc2nc2cccc([N+](=O)[O-])c12 | 0.00387 µM (active) | 0.0237 µM (active) | 0.00233 µM (active) | 0.00665 µM (active) | 0.00416 µM (active) | 0.0152 µM (active) | 0.00247 µM (active) | 0.00303 µM (active) | 0.0286 µM (active)
Cc1ccc([S+](c2ccccc2)c2cc(C)ccc2C)cc1 (stereo not drawn) | 1.62 µM (inactive) | 1.38 µM (inactive) | – | – | – | 0.859 µM (active) | – | 1.81 µM (inactive) | –
c1ccc2c(c1)CCc1c(-c3n[nH]c4c3CCc3ccccc3-4)n[nH]c1-2 | > 100 µM (inactive) | > 100 µM (inactive) | > 100 µM (inactive) | > 100 µM (inactive) | > 100 µM (inactive) | > 100 µM (inactive) | > 100 µM (inactive) | > 100 µM (inactive) | > 100 µM (inactive)
CCOC(=O)c1cc(/C=C/C(C)=C/C(=O)OC)oc1C | > 100 µM (inactive) | – | > 100 µM (inactive) | > 100 µM (inactive) | > 100 µM (inactive) | – | > 100 µM (inactive) | > 100 µM (inactive) | –
CN(C)c1ccc(C(C=C2c3ccccc3Sc3ccccc32)=C(C#N)C#N)cc1 | > 100 µM (inactive) | > 100 µM (inactive) | 45.1 µM (inactive) | 86.7 µM (inactive) | 89.1 µM (inactive) | 6.81 µM (inactive) | 58.7 µM (inactive) | > 100 µM (inactive) | > 100 µM (inactive)
COc1ccc2c(c1)CC1NC2Cc2ccccc21 (stereo not drawn) | > 100 µM (inactive) | > 100 µM (inactive) | > 100 µM (inactive) | > 100 µM (inactive) | > 100 µM (inactive) | – | > 100 µM (inactive) | > 100 µM (inactive) | –
CCOC(=O)/C(=C\c1ccccc1)C(=O)O | > 100 µM (inactive) | – | > 100 µM (inactive) | – | > 100 µM (inactive) | > 100 µM (inactive) | > 100 µM (inactive) | – | –
Clc1ccc(C2=Nc3ccccc3SC(c3cccs3)C2)cc1 (stereo not drawn) | 15.2 µM (inactive) | 18.6 µM (inactive) | 28.9 µM (inactive) | 17.5 µM (inactive) | 16.6 µM (inactive) | 14 µM (inactive) | 16.1 µM (inactive) | 10.1 µM (inactive) | –
COc1cc(/C=C\c2ccc(Br)cc2)cc(OC)c1OC | 0.00524 µM (active) | 0.000721 µM (active) | 0.000305 µM (active) | 0.000891 µM (active) | 0.00033 µM (active) | 0.00332 µM (active) | 0.000678 µM (active) | 0.00324 µM (active) | 0.01 µM (active)
CCOC(=O)C1=C(Nc2cccc3ccccc23)OCC1=O | – | – | > 100 µM (inactive) | > 100 µM (inactive) | > 100 µM (inactive) | > 100 µM (inactive) | > 100 µM (inactive) | > 100 µM (inactive) | > 100 µM (inactive)
Brc1cccc(C2SCc3nc4ccccc4n32)c1 (stereo not drawn) | 18.2 µM (inactive) | – | 28.3 µM (inactive) | 20.6 µM (inactive) | – | – | – | 12.9 µM (inactive) | –
CCCCCCCCCCCC(=O)c1c(O)cccc1O | 18.8 µM (inactive) | 16.2 µM (inactive) | 21.8 µM (inactive) | 18.5 µM (inactive) | 21.7 µM (inactive) | 18.9 µM (inactive) | 18.3 µM (inactive) | 17.8 µM (inactive) | 18.7 µM (inactive)
N=C(N)NNC(=O)CCCCCCCC(=O)NNC(=N)N | > 100 µM (inactive) | – | > 100 µM (inactive) | > 100 µM (inactive) | > 100 µM (inactive) | > 100 µM (inactive) | – | > 100 µM (inactive) | > 100 µM (inactive)
